Test results taken from patent publication US20110015226A1, “Treatment of Energy Utilization Disease” (SUMMIT CORPORATION PLC, priority 2008, published 2011).
pIC50: −log10 of the molar value. Where two headings read alike, the source gives them in different places.

Experiments:
[1] = molecular target: rat intestinal maltase; conditions: from Yasuda et al., 2002; cited from earlier work
[2] = molecular target: digestive glucosidases; conditions: Watson et al., 2001; cited from earlier work
[3] = test system: α-glucosidases; test: Inhibition of α-glucosidases (summary statement); type: biochemical; conditions: only just reaching 50% inhibition at nearly mM concentration
From the text: The results tabulated below were obtained using commercially available glycosidases and p-nitrophenyl-substrates using standard methods described for example by Watson et al (1997) Phytochemistry 46 255-259. All enzymes and substrates were bought from Sigma. Enzyme and substrate solutions were made using sodium phosphate buffers at the pH optima values. The enzymes used were α-D-glucosidase Saccharomyces cerevisiae, Bacillus stearothermophilus, Oryzae sativa), β-D-glucosidase (Almond), α-D-mannosidase (Jack bean), α-D-galactosidase (Green coffee beans), β-D-galactosidase (Bovine liver), α-L-fucosidase (Bovine kidney), N-acetyl-β-D-glucosaminidase (Bovine kidney, Jack bean, Aspergillus oryzae), Naringinase (Penicillium decumbens) and amyloglucosidase (Aspergillus niger). All enzymes were used with the appropriate p-nitrophenyl substrates (5 mM). Amyloglucosidase activity was measured using amylopectin (0.1%) (Merck) mixed with sodium phosphate buffer, pH 4.5 in a glass bottle, and healed in a boiling water bath for 20 minutes to dissolve with released glucose measured using ‘Trinder’ glucose detection solution (Sigma).

[4] = molecular target: iduronidase (Homo sapiens, UniProt P35475); conditions: Booth et al. (2007) and references therein; cited from earlier work
Chain of iduronidase (P35475 28-653): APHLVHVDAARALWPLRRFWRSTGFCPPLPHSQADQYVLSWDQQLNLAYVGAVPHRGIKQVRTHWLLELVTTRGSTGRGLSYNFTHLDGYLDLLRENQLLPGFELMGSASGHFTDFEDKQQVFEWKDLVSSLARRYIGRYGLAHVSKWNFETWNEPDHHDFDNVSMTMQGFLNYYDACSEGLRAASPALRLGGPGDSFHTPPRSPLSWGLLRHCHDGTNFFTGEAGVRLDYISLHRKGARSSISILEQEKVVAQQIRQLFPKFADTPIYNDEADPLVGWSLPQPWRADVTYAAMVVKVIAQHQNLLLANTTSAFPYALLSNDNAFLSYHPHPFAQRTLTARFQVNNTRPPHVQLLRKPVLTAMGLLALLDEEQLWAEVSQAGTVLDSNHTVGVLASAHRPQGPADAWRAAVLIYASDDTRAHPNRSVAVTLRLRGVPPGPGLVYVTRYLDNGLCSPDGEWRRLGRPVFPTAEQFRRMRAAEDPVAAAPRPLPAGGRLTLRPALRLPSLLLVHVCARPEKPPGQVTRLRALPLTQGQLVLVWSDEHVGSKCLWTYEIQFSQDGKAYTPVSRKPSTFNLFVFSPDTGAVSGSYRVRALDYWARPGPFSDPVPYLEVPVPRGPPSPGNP

[5] = Storage stability; type: physicochemical; conditions: all normal laboratory storage conditions
[6] = molecular target: rat intestinal maltase; test: Rat intestinal glycosidases: maltase; type: biochemical; conditions: rat intestinal brush border membranes
Procedure: (§1) Enzyme activities were prepared from brush border membranes of rat small intestine using disaccharides as substrates as described by Yasuda et al., 2002.

[7] = test system: ob/ob mice; test: Oral glucose tolerance test after 7 days dosing in ob/ob mice; type: in vivo
Procedure: The study started with 42 male ob/ob mice, 10 weeks of age. The mice were fed a normal chow diet during the whole study. After 1 week of acclimatization, mice were matched on basis of body weight, plasma glucose and insulin (after 4 h-fasting) and divided in 3 groups of 10 animals (t=0 days). For the next 6 days, mice received vehicle (control group 1) or 5 mg/kg/day (group 2) or 50 mg/kg/day (group 3) of the compound of formula (G2) (test compound) around 12.00 h by gavage (5 ml/kg mouse). On the 7th day, mice were fasted at 8.00 h and received the last gavage (vehicle for group 1 or 5 mg/kg/day, test compound for group 2 or 50 mg/kg/day test compound for group 3) at 12.00 h. At 13.00 h the mice subsequently received a glucose bolus (2 g/kg mouse, 5 ml/kg mouse) by gavage as start of the oral glucose tolerance test (OGTT). Measurement of blood glucose and plasma collection was at t=0 (just before gavage of glucose) and at t=5, 15, 30, 45, 60 and 120 min after glucose bolus. After the OGTT, mice were sacrificed with CO2 and additional blood was collected in heparin-coated tubes via heart puncture (>100 μl plasma was obtained) and heparin-plasma samples were analysed.
On day 0 mice were randomized on body weight and 4 h fasted plasma glucose and insulin levels (table 3.1.a). Twelve out of 42 mice were excluded, to create more homogenous groups with respect to body weight, plasma glucose and insulin.

[8] = Solubility in water; type: physicochemical
[9] = molecular target: T1, rat intestinal lactase (Rattus norvegicus, UniProt Q02401); test: Rat intestinal glycosidases: lactase; type: biochemical; conditions: rat intestinal brush border membranes
T1 construct: Enzyme activities were prepared from brush border membranes of rat small intestine; from tissue; host or cells: rat small intestine brush border membranes
T1 sequence (Q02401 868-1928): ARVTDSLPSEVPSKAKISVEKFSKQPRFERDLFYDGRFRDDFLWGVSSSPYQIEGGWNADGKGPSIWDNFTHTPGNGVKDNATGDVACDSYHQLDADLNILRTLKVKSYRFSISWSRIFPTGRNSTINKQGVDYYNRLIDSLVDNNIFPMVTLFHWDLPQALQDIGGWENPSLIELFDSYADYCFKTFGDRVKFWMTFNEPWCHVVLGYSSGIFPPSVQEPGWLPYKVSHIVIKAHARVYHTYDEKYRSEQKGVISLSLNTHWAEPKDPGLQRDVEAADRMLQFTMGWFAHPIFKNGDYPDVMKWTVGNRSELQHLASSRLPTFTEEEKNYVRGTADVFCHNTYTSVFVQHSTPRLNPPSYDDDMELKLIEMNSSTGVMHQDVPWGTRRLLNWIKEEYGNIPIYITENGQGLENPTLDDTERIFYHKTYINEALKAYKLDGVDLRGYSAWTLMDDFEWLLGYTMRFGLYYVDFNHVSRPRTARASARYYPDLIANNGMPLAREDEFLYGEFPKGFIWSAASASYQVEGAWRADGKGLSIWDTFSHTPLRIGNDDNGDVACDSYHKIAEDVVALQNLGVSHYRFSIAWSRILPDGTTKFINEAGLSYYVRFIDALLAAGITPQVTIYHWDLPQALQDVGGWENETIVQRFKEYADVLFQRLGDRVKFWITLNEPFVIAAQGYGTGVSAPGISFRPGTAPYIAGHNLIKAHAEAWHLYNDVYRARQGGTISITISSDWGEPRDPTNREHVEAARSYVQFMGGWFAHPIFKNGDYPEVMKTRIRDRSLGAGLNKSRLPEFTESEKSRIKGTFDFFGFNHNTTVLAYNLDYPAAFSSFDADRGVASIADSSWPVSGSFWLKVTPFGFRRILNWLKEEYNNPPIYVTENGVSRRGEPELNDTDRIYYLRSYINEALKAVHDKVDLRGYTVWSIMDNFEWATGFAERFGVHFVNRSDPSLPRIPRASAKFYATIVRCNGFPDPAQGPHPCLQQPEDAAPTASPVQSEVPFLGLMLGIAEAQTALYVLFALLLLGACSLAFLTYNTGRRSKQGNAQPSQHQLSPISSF
Procedure: as §1

[10] = molecular target: T2, rat intestinal cellobiase (Rattus norvegicus, UniProt Q02401); test: Rat intestinal glycosidases: cellobiase; type: biochemical; conditions: rat intestinal brush border membranes
T2 construct: Enzyme activities were prepared from brush border membranes of rat small intestine; from tissue; host or cells: rat small intestine brush border membranes
T2 sequence (Q02401 868-1928): as above
Procedure: as §1

[11] = molecular target: glucuronidase (Homo sapiens, UniProt P08236); conditions: Booth et al. (2007) and references therein; cited from earlier work
Chain of glucuronidase (P08236 23-651): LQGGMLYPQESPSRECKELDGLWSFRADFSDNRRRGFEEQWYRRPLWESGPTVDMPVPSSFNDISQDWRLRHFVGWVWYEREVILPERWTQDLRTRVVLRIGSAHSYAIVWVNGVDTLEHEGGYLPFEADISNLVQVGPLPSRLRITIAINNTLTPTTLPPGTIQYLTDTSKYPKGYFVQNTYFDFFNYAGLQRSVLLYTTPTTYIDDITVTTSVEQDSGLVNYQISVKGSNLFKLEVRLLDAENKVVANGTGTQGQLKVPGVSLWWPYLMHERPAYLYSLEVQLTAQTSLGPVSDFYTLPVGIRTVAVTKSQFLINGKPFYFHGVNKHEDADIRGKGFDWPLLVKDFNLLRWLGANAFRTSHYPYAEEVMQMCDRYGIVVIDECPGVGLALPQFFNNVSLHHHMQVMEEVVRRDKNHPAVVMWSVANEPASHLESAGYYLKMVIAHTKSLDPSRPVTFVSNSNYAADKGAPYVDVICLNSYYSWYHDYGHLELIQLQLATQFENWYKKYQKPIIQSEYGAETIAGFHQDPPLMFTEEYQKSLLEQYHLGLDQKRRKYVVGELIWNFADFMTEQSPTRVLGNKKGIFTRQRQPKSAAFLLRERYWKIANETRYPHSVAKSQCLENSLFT

[12] = test system: β-D-mannosidase Cellullomonas fimi; test: Glycosidase inhibition: β-D-mannosidase Cellullomonas fimi; type: biochemical; conditions: compounds tested at 0.8 mM
Procedure: All enzymes and para-nitrophenyl substrates were purchased from Sigma, with the exception of beta-mannosidase which came from Megazyme. Enzymes were assayed at 27° C. in 0.1M citric acid/0.2M disodium hydrogen phosphate buffers at the optimum pH for the enzyme. The incubation mixture consisted of 10 μl enzyme solution, 10 μl of 1 mg/ml aqueous solution of extract and 50 μl of the appropriate 5 mM para-nitrophenyl substrate made up in buffer at the optimum pH for the enzyme. The reactions were stopped by addition of 70 μl 0.4M glycine (pH 10.4) during the exponential phase of the reaction, which had been determined at the beginning using uninhibited assays in which water replaced inhibitor. Final absorbances were read at 405 nm using a Versamax microplate reader (Molecular Devices). Assays were carried out in triplicate, and the values given are means of the three replicates per assay. (See Watson, A. A., Nash, R. J., Wormald, M. R., Harvey, D. J., Dealler, S., Lees, E., Asano, N., Kizu, H., Kato, A., Griffiths, R. C., Cairns, A. J. and Fleet, G. W. J. (1997). Glycosidase-inhibiting pyrrolidine alkaloids from Hyacinthoides non-scripta. Phytochemistry 46 (2): 255-259.)

[13] = test system: ddy mice; test: Serum insulin levels in ddy mice with or without glucose load; type: in vivo; conditions: 30 minutes
Procedure: 7 week old ddy mice (weight 30-31 g) were divided into 4 groups (groups 1 to 4). Each group had 3-4 mice. All test mouse were fasted for 16 hours before being given the test compounds.
Group 1: Control. un-treated mice (without glucose and G2). Group 2: Oral administration of glucose alone. Group 3: Oral administration of G2 alone. Group 4: Oral administration of G2 with glucose.
Serum insulin levels were measured after 30 minutes (see FIG. 2).
FIG. 3 Effects of G2 (BR1) (100 mg/kg body weight) on serum insulin levels.
Serum insulin concentrations of male ddy mouse after 30 minutes later an oral load with or without D-glucose (2.5 g/kg body weight). Each value represents the mean±SEM (n=3-4). * P<0.05, ** P<0.01.

[14] = molecular target: T3, rat intestinal isomaltase (Rattus norvegicus, UniProt P23739); test: Rat intestinal glycosidases: isomaltase; type: biochemical; conditions: rat intestinal brush border membranes
T3 construct: Enzyme activities were prepared from brush border membranes of rat small intestine; from tissue; host or cells: rat small intestine brush border membranes
T3 sequence (P23739 whole entry): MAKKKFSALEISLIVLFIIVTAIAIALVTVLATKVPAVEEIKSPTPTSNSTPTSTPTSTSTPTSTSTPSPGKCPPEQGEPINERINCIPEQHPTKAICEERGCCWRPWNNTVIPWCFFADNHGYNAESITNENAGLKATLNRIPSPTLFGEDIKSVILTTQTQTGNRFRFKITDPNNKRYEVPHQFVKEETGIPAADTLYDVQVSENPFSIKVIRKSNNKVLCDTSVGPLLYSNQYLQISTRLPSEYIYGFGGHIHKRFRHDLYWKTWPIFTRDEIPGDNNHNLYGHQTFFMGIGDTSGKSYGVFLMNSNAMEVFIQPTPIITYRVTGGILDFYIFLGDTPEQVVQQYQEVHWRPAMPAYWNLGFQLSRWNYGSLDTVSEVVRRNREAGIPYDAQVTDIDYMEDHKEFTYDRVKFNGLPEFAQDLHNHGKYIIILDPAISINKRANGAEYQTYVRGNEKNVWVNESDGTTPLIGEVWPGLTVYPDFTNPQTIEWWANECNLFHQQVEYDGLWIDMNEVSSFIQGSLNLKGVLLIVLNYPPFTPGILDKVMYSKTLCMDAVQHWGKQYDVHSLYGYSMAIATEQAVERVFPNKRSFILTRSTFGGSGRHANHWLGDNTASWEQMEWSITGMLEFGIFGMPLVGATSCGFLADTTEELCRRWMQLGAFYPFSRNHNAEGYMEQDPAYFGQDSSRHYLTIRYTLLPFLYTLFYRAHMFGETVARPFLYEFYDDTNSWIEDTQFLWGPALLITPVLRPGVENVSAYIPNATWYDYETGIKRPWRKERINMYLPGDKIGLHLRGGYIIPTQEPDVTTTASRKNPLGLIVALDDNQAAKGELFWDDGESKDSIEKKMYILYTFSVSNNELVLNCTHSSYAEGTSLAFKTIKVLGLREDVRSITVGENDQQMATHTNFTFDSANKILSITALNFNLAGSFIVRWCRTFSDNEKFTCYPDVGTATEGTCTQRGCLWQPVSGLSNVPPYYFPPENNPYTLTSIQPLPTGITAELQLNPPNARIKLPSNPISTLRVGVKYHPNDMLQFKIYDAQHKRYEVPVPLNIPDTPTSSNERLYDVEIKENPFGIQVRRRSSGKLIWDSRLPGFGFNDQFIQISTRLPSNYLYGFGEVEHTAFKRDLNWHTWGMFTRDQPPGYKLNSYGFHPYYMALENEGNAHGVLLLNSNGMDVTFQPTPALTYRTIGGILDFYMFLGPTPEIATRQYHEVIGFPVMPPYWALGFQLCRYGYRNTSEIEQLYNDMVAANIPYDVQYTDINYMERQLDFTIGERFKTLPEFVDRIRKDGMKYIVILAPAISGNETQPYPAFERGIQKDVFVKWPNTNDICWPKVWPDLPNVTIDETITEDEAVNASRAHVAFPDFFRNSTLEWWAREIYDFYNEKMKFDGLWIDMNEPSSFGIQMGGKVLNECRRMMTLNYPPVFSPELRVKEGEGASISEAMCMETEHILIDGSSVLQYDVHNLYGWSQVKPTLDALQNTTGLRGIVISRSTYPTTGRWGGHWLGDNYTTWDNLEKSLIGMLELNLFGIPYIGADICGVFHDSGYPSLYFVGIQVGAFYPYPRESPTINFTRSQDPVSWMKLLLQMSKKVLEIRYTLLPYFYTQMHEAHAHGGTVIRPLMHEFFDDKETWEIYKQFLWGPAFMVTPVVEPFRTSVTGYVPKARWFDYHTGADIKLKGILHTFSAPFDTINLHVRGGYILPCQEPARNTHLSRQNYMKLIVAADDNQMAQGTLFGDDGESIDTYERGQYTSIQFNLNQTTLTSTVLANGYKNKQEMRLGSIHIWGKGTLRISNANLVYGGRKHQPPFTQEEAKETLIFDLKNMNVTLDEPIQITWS
Procedure: as §1

[15] = 5 mg/kg/day or 50 mg/kg/day by gavage, compared to control (vehicle) group

In the case of `OC[C@H]1NC[C@H](O)[C@@H](O)[C@@H]1O` [DNJ, 1-deoxynojirimycin, reference compound], the pIC50 [1] is given as 6.44 and the “Ki values, digestive glucosidases” value [2] is given as “low or sub-μM range”.
For `O=C(O)[C@H]1NC[C@H](O)[C@@H](O)[C@@H]1O` [Compound G2, 2S,3R,4R,5S-trihydroxypiperidine-2-carboxylic acid], the “inhibition of α-glucosidases” value [3] is given as “very weak inhibitor”, the inhibition of iduronidase [4] is given as “weak inhibitor” and the stability [5] is given as “stable”. For the same molecule, the pIC50 [6] was < 3.00, the “plasma insulin concentrations 120 min after glucose bolus” value ([7]; 5 mg/kg and 50 mg/kg groups vs control) was “significantly increased” and the body weight [7, 15] was “not significantly changed”. For the same molecule, the food intake [7, 15] was “not significantly changed”, the “plasma insulin at 15, 30, 45 and 60 min” value ([7]; after glucose bolus 2 g/kg, 5 and 50 mg/kg/day groups vs control) was “No significant changes” and the “plasma insulin levels at 0 min” value ([7]; just before oral glucose load, 5 and 50 mg/kg/day groups vs control, reduction not significant) was “reduced somewhat”. For the same molecule, the solubility in water [8] was “freely soluble”, the pIC50 [9] was < 3.00 and the pIC50 [10] was < 3.00. The inhibition of glucuronidase [11] was “weak inhibitor”, the “% inhibition, β-D-mannosidase Cellullomonas fimi” value [12] was “NI (NI = no inhibition)” and the “serum insulin level, G2 with glucose” value ([13]; 100 mg/kg body weight oral with D-glucose 2.5 g/kg, vs glucose alone) was “much effective than glucose alone”. The “serum insulin level, G2 alone” value ([13]; 100 mg/kg body weight oral, without glucose, vs un-treated) was “did not affect the insulin level” and the pIC50 [14] was < 3.00.
